Data on one molecule can be found in patent US12252708B2, “Living mammalian cells modified with functional modular nanoparticles” (UNM Rainforest Innovations, priority 2018, dated 2025).

For the assay, the system named is HeLa cells. Kind of assay: Cytoprotection test to DOX. The class given is cell-based. The note with it: native HeLa cells and SupraCell-MIL-100(Fe); nearly identical dose response curve; 2 hours.

Method: Then, the anticancer drug doxorubicin (diameter about 1.6 nm) or cytotoxic silver (Ag) nanocrystals (diameter about 5.0 nm) were added into the culture medium at different concentrations.
Cytoprotection test to DOX. The cytoprotection test was performed on Supracell-MIL-100 (Fe). Briefly, the native HeLa cells and Supracell-MIL-100 (Fe) were seeded on 96-well plate at the density of 200,000 cells/mL. Then different concentration of DOX (0.01, 0.1, 1.0, 10, 20, and 50 μg/ML) was added in the cell culture media under cell culture condition. After incubation for 2 hours, the viability of the cells or SupraCells was measured by CellTiter-Glo® 2.0 Assay.

`COc1cccc2c1C(=O)c1c(O)c3c(c(O)c1C2=O)C[C@@](O)(C(=O)CO)C[C@@H]3O[C@H]1C[C@H](N)[C@H](O)[C@H](C)O1` [doxorubicin]: the “sensitivity of cells to the drug (viability)” value is “sensitive”.
